Molecular target: T1, Recombinant Human 5′-Nucleotidase (CD73) (Homo sapiens, UniProt P21589)
T1 construct: CHO derived CD73 (Trp27-Lys547), with a C-terminal 6-His tag; 6-His (C); purchased R&D 5795-EN; host or cells: CHO
T1 sequence (P21589 27-547): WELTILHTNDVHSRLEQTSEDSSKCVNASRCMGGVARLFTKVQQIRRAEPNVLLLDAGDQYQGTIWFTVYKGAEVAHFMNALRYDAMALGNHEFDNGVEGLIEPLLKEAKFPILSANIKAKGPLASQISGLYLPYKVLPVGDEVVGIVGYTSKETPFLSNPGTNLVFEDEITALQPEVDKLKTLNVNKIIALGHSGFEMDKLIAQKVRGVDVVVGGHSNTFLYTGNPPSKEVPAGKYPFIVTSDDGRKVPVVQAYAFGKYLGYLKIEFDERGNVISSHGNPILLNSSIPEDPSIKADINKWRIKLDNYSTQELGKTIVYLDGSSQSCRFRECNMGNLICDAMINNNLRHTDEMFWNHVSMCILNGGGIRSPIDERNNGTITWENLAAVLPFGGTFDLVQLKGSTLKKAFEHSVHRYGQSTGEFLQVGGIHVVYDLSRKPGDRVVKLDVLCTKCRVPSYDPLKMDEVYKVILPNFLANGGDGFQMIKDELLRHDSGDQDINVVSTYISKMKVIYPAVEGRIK
Assay: CD73 Enzyme Assay (PiColorLock inorganic phosphate detection, AMP substrate)
Assay type: biochemical
Conditions: human CD73 0.5 nM, AMP 30 μM, 20 min at 37° C., absorbance 635 nm; read-out: Potency (IC50)
Text: Soluble recombinant CD73 catalyzes the conversion of adenosine monophosphate (AMP) to adenosine and inorganic phosphate. The phosphate detection reagent, PiColorLock™ (Innova Bioscience, Cat #303-0125) is based on the change in absorbance of the dye malachite green in the presence of inorganic phosphate (Pi) and this property can be exploited to measure any enzyme that generates Pi. Recombinant Human 5′-Nucleotidase (CD73) (R&D #5795-EN, CHO derived CD73 (Trp27-Lys547), with a C-terminal 6-His tag) was used in the enzymatic assay. This assay, run in a 384-well plate format (Corning® NBS™ 384 well plates, Cat #3640), is a generic method for measuring inorganic phosphate. The basic assay procedure involves two steps: 1) Enzyme reaction: The CD73 enzyme (R&D #5795-EN) is incubated in the presence or absence of compounds. AMP (sigma, cat #01930) is added to start the […] reaction. 2) Detection step: Gold mix is added to the assay system, then stabilizers are added. After incubation the absorbance of the solution is read at OD 635 nm. The recorded OD signal is proportional to the enzyme activity.
Briefly, 25 μl human CD73 (0.5 nM final concentration) in the enzymatic buffer solutions (20 mM Tris, 25 mM NaCl, 1 mM MgCl2, pH 7.5, 0.005% Tween-20) were mixed with various concentrations of the test compound (dissolved in 100% DMSO). These solutions were incubated for 15 min at 25° C., and subsequently 25 μl AMP (30 μM final concentration) was added to start the reaction. The final reaction mixture of enzyme-substrate-compound was incubated for 20 min at 37° C. Meanwhile ‘Gold mix’ was prepared shortly before use by adding 1/100 vol. of accelerator to the PiColorLock™ Gold reagent. 12 μL/well of the ‘Gold mix’ was added to assay plate containing 50 μL enzyme reaction buffer and incubated at 25° C. for 5 min. 5 μL/well stabilizer was added to the assay plate and incubated at 25° C. for 30 min. The absorbance of the well solutions was measured at 635 nm on a Spark 10M instrument (TECAN).
The percent (%) inhibition at each concentration of a compound was calculated relative to the […] value in the Max and Min control wells contained within each assay plate. The Max control wells contained enzyme and substrate as 0% inhibition, and the Min control wells only contained substrate without enzyme as 100% inhibition. The concentrations and percent inhibition values for a test compound are plotted and the concentration of the compound required to achieve 50% inhibition (IC50) was determined with a four-parameter logistic dose response equation.

SMILES | IC50 [nM]
O=P(O)(O)CP(=O)(O)OC[C@H]1OC(c2cnc3c(N4CCc5ccccc5C4)cc(Cl)nn23)[C@H](O)[C@@H]1O (stereo partly drawn) [Example S28, (((((2R,3S,4R)-5-(6-chloro-8-(3,4-dihydroisoquinolin-2 (1H)-yl)imidazo[1,2-b]pyridazin-3-yl)-3,4-dihydroxytetrahydrofuran-2-yl)methoxy)(hydroxy)phosphoryl)methyl)phosphonic acid] | 1 to 9.9
O=P(O)(O)CP(=O)(O)OC[C@H]1O[C@@H](c2cnc3c(NC4CCCC4)cc(Cl)nn23)[C@@H](F)[C@@H]1O [Example S31, (((((2R,3R,4S,5S)-5-(6-chloro-8-(cyclopentylamino)imidazo[1,2-b]pyridazin-3-yl)-4-fluoro-3-hydroxytetrahydrofuran-2-yl)methoxy)(hydroxy)phosphoryl)methyl)phosphonic acid] | 10 to 99
O=P(O)(O)CP(=O)(O)OC[C@H]1O[C@@H](c2cnc3c(N4CCC[C@H]4c4ccccc4F)cc(Cl)nn23)[C@H](O)[C@@H]1O [Example S34, (((((2R,3S,4R,5S)-5-(6-chloro-8-((S)-2-(2-fluorophenyl)pyrrolidin-1-yl)imidazo[1,2-b]pyridazin-3-yl)-3,4-dihydroxytetrahydrofuran-2-yl)methoxy)(hydroxy)phosphoryl)methyl)phosphonic acid] | 1 to 9.9
O=P(O)(O)CP(=O)(O)OC[C@H]1O[C@@H](c2csc3c(N4CC5CCCC5C4)nc(Cl)nc23)[C@H](O)[C@@H]1O (stereo partly drawn) [Example S41, [({[(2R,3S,4R,5S)-5-(2-chloro-4-{hexahydro-1H-cyclopenta[c]pyrrol-2-yl}thieno[3,2-d]pyrimidin-7-yl)-3,4-dihydroxyoxolan-2-yl]methoxy}(hydroxy)phosphoryl)methyl]phosphonic acid] | 10 to 99
O=P(O)(O)CP(=O)(O)OC[C@H]1O[C@@H](c2csc3c(N4CCCC4)cc(Cl)nc23)[C@H](O)[C@@H]1O [Example S42, [({[(2R,3S,4R,5S)-5-[5-chloro-7-(pyrrolidin-1-yl)thieno[3,2-b]pyridin-3-yl]-3,4-dihydroxyoxolan-2-yl]methoxy}(hydroxy)phosphoryl)methyl]phosphonic acid] | 1 to 9.9
O=P(O)(O)CP(=O)(O)OC[C@H]1O[C@@H](c2csc3c(N4CC5CCCC5C4)cc(Cl)nc23)[C@@H](F)[C@@H]1O (stereo partly drawn) [Example S43, (((((2R,3R,4S,5S)-5-(5-chloro-7-(hexahydrocyclopenta[c]pyrrol-2 (1H)-yl)thieno[3,2-b]pyridin-3-yl)-4-fluoro-3-hydroxytetrahydrofuran-2-yl)methoxy)(hydroxy)phosphoryl)methyl)phosphonic acid] | 10 to 99
O=P(O)(O)CP(=O)(O)OC[C@H]1O[C@@H](c2csc3c(N4CC5CCCC5C4)nc(Cl)nc23)[C@@H](F)[C@@H]1O (stereo partly drawn) [Example S44, [({[(2R,3R,4S,5S)-5-(2-chloro-4-{hexahydro-1H-cyclopenta[c]pyrrol-2-yl}thieno[3,2-d]pyrimidin-7-yl)-4-fluoro-3-hydroxyoxolan-2-yl]methoxy}(hydroxy)phosphoryl)methyl]phosphonic acid] | 10 to 99

Continued, values first:

IC50 [nM] | SMILES
1 to 9.9 | O=P(O)(O)CP(=O)(O)OC[C@H]1OC(c2cnc3c(N4CCC(F)(F)CC4)cc(Cl)nn23)[C@H](O)[C@@H]1O (stereo partly drawn) [Example S29, (((((2R,3S,4R)-5-(6-chloro-8-(4,4-difluoropiperidin-1-yl)imidazo[1,2-b]pyridazin-3-yl)-3,4-dihydroxytetrahydrofuran-2-yl)methoxy)(hydroxy)phosphoryl)methyl)phosphonic acid]
1 to 9.9 | O=P(O)(O)CP(=O)(O)OC[C@H]1OC(c2cnc3c(OC4CCCC4)cc(Cl)nn23)[C@H](O)[C@@H]1O (stereo partly drawn) [Example S30, (((((2R,3S,4R)-5-(6-chloro-8-(cyclopentyloxy)imidazo[1,2-b]pyridazin-3-yl)-3,4-dihydroxytetrahydrofuran-2-yl)methoxy)(hydroxy)phosphoryl)methyl)phosphonic acid]
1 to 9.9 | CN(c1cc(Cl)nn2c([C@@H]3O[C@H](COP(=O)(O)CP(=O)(O)O)[C@@H](O)[C@H]3O)cnc12)C1CCCC1 [Example S32]
1 to 9.9 | O=P(O)(O)CP(=O)(O)OC[C@H]1O[C@@H](c2cnc3c(NC45CCC(CC4)C5)cc(Cl)nn23)[C@H](O)[C@@H]1O [Example S33, [({[(2R,3S,4R,5S)-5-(8-{bicyclo[2.2.1]heptan-1-ylamino}-6-chloroimidazo[1,2-b]pyridazin-3-yl)-3,4-dihydroxyoxolan-2-yl]methoxy}(hydroxy)phosphoryl)methyl]phosphonic acid]
1 to 9.9 | O=P(O)(O)CP(=O)(O)OC[C@H]1O[C@@H](c2cnc3c(N4CCC(F)(F)C4)cc(Cl)nn23)[C@H](O)[C@@H]1O [Example S35, (((((2R,3S,4R,5S)-5-(6-chloro-8-(3,3-difluoropyrrolidin-1-yl)imidazo[1,2-b]pyridazin-3-yl)-3,4-dihydroxytetrahydrofuran-2-yl)methoxy)(hydroxy)phosphoryl)methyl)phosphonic acid]
1 to 9.9 | C[C@H](Nc1cc(Cl)nn2c([C@@H]3O[C@H](COP(=O)(O)CP(=O)(O)O)[C@@H](O)[C@H]3O)ncc12)c1ccccc1F [Example S37, (((((2R,3S,4R,5S)-5-(2-chloro-4-(((S)-1-(2-fluorophenyl)ethyl)amino)imidazo[1,5-b]pyridazin-7-yl)-3,4-dihydroxytetrahydrofuran-2-yl)methoxy)(hydroxy)phosphoryl)methyl)phosphonic acid]
1 to 9.9 | O=P(O)(O)CP(=O)(O)OC[C@H]1O[C@@H](c2ncc3c(N4CCCC4)cc(Cl)nn23)[C@H](O)[C@@H]1O [Example S38, [({[(2R,3S,4R,5S)-5-[2-chloro-4-(pyrrolidin-1-yl)imidazo[1,5-b]pyridazin-7-yl]-3,4-dihydroxyoxolan-2-yl]methoxy}(hydroxy)phosphoryl)methyl]phosphonic acid]
1 to 9.9 | O=P(O)(O)CP(=O)(O)OC[C@H]1O[C@@H](c2ncc3c(N4CC5CC5C4)cc(Cl)nn23)[C@H](O)[C@@H]1O (stereo partly drawn) [Example S39, (((((2R,3S,4R,5S)-5-(4-(3-azabicyclo[3.1.0]hexan-3-yl)-2-chloroimidazo[1,5-b]pyridazin-7-yl)-3,4-dihydroxytetrahydrofuran-2-yl)methoxy)(hydroxy)phosphoryl)methyl)phosphonic acid]
1 to 9.9 | O=P(O)(O)CP(=O)(O)OC[C@H]1O[C@@H](c2ncc3c(N4CCc5ccccc54)cc(Cl)nn23)[C@H](O)[C@@H]1O [Example S40, [({[(2R,3S,4R,5S)-5-[2-chloro-4-(2,3-dihydroindol-1-yl)imidazo[1,5-b]pyridazin-7-yl]-3,4-dihydroxyoxolan-2-yl]methoxy}(hydroxy)phosphoryl)methyl]phosphonic acid]
